Measured values from patent US20240197700A1, “Methods and Compositions for Treating Lysosomal Storage Disorders” (Sanford Health, priority 2021, published 2024).

Assays:
[1] = Stability of semaglutide in solution (vehicle formulation); format: physicochemical; conditions: 4° C.
Procedure: In in vitro models, semaglutide (Creative Peptides, Catalog #910463-68-2) was tested in concentrations of 10 nM, 100 nM, and 1 μM in 1% DMSO. Vehicle treated cells were dosed with 1% DMSO. In in vivo models, semaglutide (Creative Peptides, Catalog #910463-68-2) was tested in concentrations of 2.571 μg/mouse and 25.71 μg/mouse prepared using the vehicle formulation for a total injection volume of 0.2 ml. Compound was stable in solution for 56 days at 4° C. Semaglutide was utilized at 98% HPLC purity.

Cln2^R207X mice [2] = test: SubC burden (immunohistochemistry) in brain of Cln2^R207X mice; format: in vivo, mouse; conditions: for Subunit C burden: somatosensory cortex
Procedure: (§1) Specific experimental details are included in figure legends. In general, after collection and preparation, MEFs and PNCs were dosed with vehicle or AF38469 (40 nM, 400 nM. or 4 μM) on DIV3 and DIV5. On DIV7, cells were treated with the following dyes: Hoechst 33342 (1:1000 dilution), LysoTrackerT™ Red DND-99 (1:10,000 dilution), fixed, and imaged. Mice were given vehicle or AF38469 (78.125 μg/ml, 3.125 μg/ml, 0.3125 μg/ml or 0.03125 μg/ml equating approximately to 250 μg/mouse/day, 10 μg/mouse/day, 1 μg/mouse/day, and […], respectively, given a mouse's daily water intake of approximately 3.2 ml per day) in drinking water beginning at wean. Body weight was measured bi-weekly, and a force actimeter test was performed on Cln2^R207X mice at 10 weeks of age. Body weight was measured every month for Cln3^Δex7/8 mice. At 11 and 16 weeks of age, respectively, Cln2^R207X and Cln3^Δex7/8 mice along with age matched wild type control mice were CO2 euthanized and intracardially perfused with PBS. Brains were collected and placed on a 1 mm sagittal brain block. Brains were sliced at the midline and 3 mm right of the midline. One hemisphere was fixed in 4% PFA and sectioned at 50 microns on a vibratome. Immunohistochemistry was performed on free-floating sections. For mitochondrial ATP synthase subunit C (SubC), glial fibrillary acidic protein (GFAP), and cluster of differentiation 68 (CD68) immunolabeling, primary antibodies included anti-SubC (Abcam, ab181243; 1:1000), anti-GFAP (Dako, Z0334; 1:5000), anti-CD68 (AbD Serotec, MCA1957; 1:2000), and secondary antibodies included anti-rabbit biotinylated (Vector Labs, BA-1000 1:1000) and anti-rat (Vector Labs, BA-9400 1:1000). Coverslips were mounted on slides using antifade-mounting media and were stored in the dark before imaging. Sections were imaged and analyzed using an Aperio Digital Pathology Slide Scanner (AT2) and associated software. Images were extracted from S1BF of the somatosensory cortex and the VPM/VPL of the thalamus, with multiple images taken of multiple tissues from each animal.
Short-term chronic treatment with AF38469 reduces storage material burden in Cln2^R207X and Cln3^Δex7/8 mice. Beginning at wean, wild type and Cln2^R207X mice were treated with vehicle (0.2408% DMSO) or AF38469 (0.03125 μg/ml, 0.3125 μg/ml, 3.125 μg/ml, 78.125 μg/ml) continuously through the drinking water continuing until sacrifice at 11 weeks. […] Sections were imaged and analyzed using an Aperio Digital Pathology Slide Scanner (AT2) and associated software. […] Percent area of immunoreactivity were quantified using a threshold analysis in ImageJ™. […]

Cln2^R207X mice [3] = test: Tremor index score on force plate actimeter in Cln2^R207X mice; format: in vivo, mouse; conditions: for tremor index score: 10 weeks of age
Procedure: as §1
Short-term chronic treatment with AF38469 reduced tremor phenotype in Cln2^R207X mice. Beginning at wean, wild type and Cln2^R207X mice were treated with vehicle (0.2408% DMSO) or AF38469 (0.03125 μg/ml, 0.3125 μg/ml, 3.125 μg/ml, 78.125 μg/ml) continuously through the drinking water. At 10 weeks of age, wild type and Cln2^R207X mice were evaluated on the force plate actimeter. Evaluation of tremors with the force plate actimeter software produces a tremor index score based on the tremor frequency 5-10 Hz (A), 10-15 Hz (B), 15-20 Hz (C) and 20-25 Hz (D). Data was analyzed with Graphpad. Two-way ANOVA. Mean±S.E.M. Dunnett's multiple comparisons test. *p<0.05, **p<0.01, ***p<0.001, ****p<0.0001. […]

Compound	stable in solution [1]	Subunit C burden (Cln2^R207X mice [2]; 0.03125 μg/ml, 0.3125 μg/ml in drinking water, 11 weeks)	SubC burden (Cln2^R207X mice [2]; 3.125 μg/ml, 78.125 μg/ml in drinking water, VPM/VPL of the thalamus, 11 weeks, vs vehicle Cln2^R207X)	Subunit C burden (Cln2^R207X mice [2]; 78.125 μg/ml in drinking water, 11 weeks)	SubC accumulation (Cln2^R207X mice [2]; overall statement, short term treatment, Cln2^R207X)	tremor index score (Cln2^R207X mice [3]; 5-10 Hz, vs vehicle Cln2^R207X)	tremor index score (Cln2^R207X mice [3]; 10-15 Hz, 0.3125 μg/ml)	tremor index score (Cln2^R207X mice [3]; 15-20 Hz and 20-25 Hz, 0.03125 μg/ml, 0.3125 μg/ml, 3.125 μg/ml)	tremor index scores (Cln2^R207X mice [3]; lower concentrations, summary statement)
semaglutide	56 days	–	–	–	–	–	–	–	–
Cc1cccc(NC(=O)c2ccc(C(F)(F)F)cc2C(=O)O)n1 [AF38469, 2-((6-methylpyridin-2-yl)carbamoyl)-5-(trifluoromethyl)benzoic acid]	–	significantly decreased	did not have an impact	significantly decreased	reduces	had no impact	significantly reduced	significantly reduced	significantly reduce
